Assay results taken from ChEMBL document CHEMBL1150457, “-hydroxyamide derived aminodiols as potent inhibitors of hiv protease” (Bioorg Med Chem Lett, 1995).

What was measured:
[1] = test system: Human immunodeficiency virus 1; assay: Concentration required to inhibit HIV-1 virus replication by 50% as determined by XTT; assay type: functional; conditions: read-out: ED50 (the source's name)
[2] = biological target: T1, Human immunodeficiency virus type 1 protease (Human immunodeficiency virus 1, UniProt Q72874); assay: Inhibition constant against HIV protease was determined
[3] = biological target: T1, Human immunodeficiency virus type 1 protease; assay: In vitro inhibition of HIV-1 protease.

SMILES	EC50 ([1]; Human immunodeficiency virus 1) [nM]	Ki [2] [nM]	IC50 [3] [nM]	EC50 [1] [nM]
CC(C)(C)OC(=O)N[C@@H](Cc1ccccc1)[C@H](O)CNC[C@@H](O)[C@H](Cc1ccccc1)NC(=O)[C@@](C)(O)C(C)(C)C	60	24	40	
CC(C)(C)OC(=O)N[C@@H](Cc1ccccc1)[C@H](O)CNC[C@@H](O)[C@H](Cc1ccccc1)NC(=O)[C@@H](O)C(C)(C)C			1200	
CC(C)(C)CC(=O)N[C@@H](Cc1ccccc1)[C@H](O)CNC[C@@H](O)[C@H](Cc1ccccc1)NC(=O)OC(C)(C)C	1200			
CC(C)(C)OC(=O)N[C@@H](Cc1ccccc1)[C@H](O)CNC[C@@H](O)[C@H](Cc1ccccc1)NC(=O)[C@@H](O)c1ccccc1			> 10000	
CC(C)(C)OC(=O)N[C@@H](Cc1ccccc1)[C@H](O)CNC[C@@H](O)[C@H](Cc1ccccc1)NC(=O)[C@@](C)(O)c1ccccc1	1350		260	
CC(C)(C)OC(=O)N[C@@H](Cc1ccccc1)[C@H](O)CNC[C@@H](O)[C@H](Cc1ccccc1)NC(=O)C(C)(C)O	970		450	
CC(C)(C)OC(=O)N[C@@H](Cc1ccccc1)[C@H](O)CNC[C@@H](O)[C@H](Cc1ccccc1)NC(=O)OC(C)(C)C	80	100		
CC(C)(C)OC(=O)N[C@@H](Cc1ccccc1)[C@H](O)CNC[C@@H](O)[C@H](Cc1ccccc1)NC(=O)[C@H](O)C(C)(C)C	55		50	
CC(C)(C)OC(=O)N[C@@H](Cc1ccccc1)[C@H](O)CNC[C@@H](O)[C@H](Cc1ccccc1)NC(=O)[C@](C)(O)C(C)(C)C	1380		900	
CC(C)(C)OC(=O)N[C@@H](Cc1ccccc1)[C@H](O)CNC[C@@H](O)[C@H](Cc1ccccc1)NC(=O)[C@](C)(O)c1ccccc1			6500	
CC(C)(C)OC(=O)N[C@@H](Cc1ccccc1)[C@H](O)CNC[C@@H](O)[C@H](Cc1ccccc1)NC(=O)[C@H](O)c1ccccc1	650		320	
CC(C)(C)OC(=O)N[C@@H](Cc1ccccc1)[C@H](O)CNC[C@@H](O)[C@H](Cc1ccccc1)NC(=O)C(O)C(F)(F)F (single isomer, unassigned; isomer A)	60		40	
CC(C)(C)OC(=O)N[C@@H](Cc1ccccc1)[C@H](O)CNC[C@@H](O)[C@H](Cc1ccccc1)NC(=O)C(O)(CO)C(C)(C)C (single isomer, unassigned; isomer B)			10000	
CC(C)(C)OC(=O)N[C@@H](Cc1ccccc1)[C@H](O)CNC[C@@H](O)[C@H](Cc1ccccc1)NC(=O)C1(O)CCCC1(C)C (single isomer, unassigned; isomer B)			250	375
CC(C)(C)OC(=O)N[C@@H](Cc1ccccc1)[C@H](O)CNC[C@@H](O)[C@H](Cc1ccccc1)NC(=O)C(O)C(F)(F)F (stereo in doubt)			2200	
CC(C)(C)OC(=O)N[C@@H](Cc1ccccc1)[C@H](O)CNC[C@@H](O)[C@H](Cc1ccccc1)NC(=O)C(O)(CO)C(C)(C)C (stereo in doubt)	25		60	
CC(C)(C)OC(=O)N[C@@H](Cc1ccccc1)[C@H](O)CNC[C@@H](O)[C@H](Cc1ccccc1)NC(=O)C1(O)CCCC1(C)C (stereo in doubt)			15	30
CC(C)(C)OC(=O)N[C@@H](Cc1ccccc1)[C@H](O)CNC[C@@H](O)[C@H](Cc1ccccc1)NC(=O)C(C)(O)C(C)(C)CO (stereo in doubt; form 1)			120	110
CC(C)(C)OC(=O)N[C@@H](Cc1ccccc1)[C@H](O)CNC[C@@H](O)[C@H](Cc1ccccc1)NC(=O)C1(O)COCC1(C)C (stereo in doubt; form 1)			3500	
CC(C)(C)OC(=O)N[C@@H](Cc1ccccc1)[C@H](O)CNC[C@@H](O)[C@H](Cc1ccccc1)NC(=O)C(C)(O)C(C)(C)CO (stereo in doubt; form 2)	160		130	
CC(C)(C)OC(=O)N[C@@H](Cc1ccccc1)[C@H](O)CNC[C@@H](O)[C@H](Cc1ccccc1)NC(=O)C1(O)COCC1(C)C (stereo in doubt; form 2)	230		220	
